# Assay results: paper PMC5011342, “A high throughput drug screening assay to identify compounds that promote oligodendrocyte differentiation using acutely dissociated and purified oligodendrocyte precursor cells” (BMC Research Notes, 2016)
# Where “and” joins values, the source holds several entries; their conditions need not be identical. Equal entries are not always repeated. Structures can show the parent of a compound that is named as a salt. Where two headings read alike, the source gives them in different places.
# How the values were obtained:
# [1] = test system: acutely dissociated and purified rat OPCs; test: Acute OL differentiation assay (MBP expression/cell, immunofluorescent image quantification); assay type: cell-based
# Procedure: In order to identify compounds with the potential to promote OL differentiation in vivo and thereby enhance remyelination, we first wanted to establish an in vitro assay system that would closely mimic conditions in vivo. To do this, we started by using OPCs acutely isolated from postnatal day 6–7 (P6–7) rat brains by O4 immunopanning. […] OPCs were plated directly onto a biological substrate (PDL/laminin) in 96-well view plates at moderate density to allow for sufficient room to expand processes during differentiation. We plated cells in serum-free medium lacking OPC mitogens (no PDGF or FGF) to allow a basal level of OL differentiation to commence, and as a positive control added thyroid hormone (T3, 40 ng/ml) to accelerate differentiation (Fig. 1, flow scheme).
# Fig. 1 Flow scheme of the acute OL differentiation assay. a Purified oligodendrocyte precursor cells (OPCs) were cultured from P7 rat cortex and plated into PDL/laminin pre-coated 96-well plates. b One hour later test compounds were added. c OPC cultures with compound were maintained in culture for an additional 4 days. d On the 5th day with compound, cells were fixed and immunostained with anti-MBP antibodies and DAPI. e Images were acquired with automated fluorescence microscopy and scored phenotypically for OL differentiation (see “Methods” section)
# To quantify the extent of OL differentiation occurring in treatment conditions, we measured the overall amount of MBP expression/cell (see “Methods” section). Figure 2a depicts the mask created over MBP staining under which the MBP expression was quantified. […]
# All animal work was carried out in strict accordance with the recommendations in the Guide for the Care and Use of Laboratory Animals of the National Institutes of Health. The protocol was approved by the Institutional Use and Care and Use Committee at the Molecular Medicine Research Institute (Sunnyvale, CA). Animals used for OPC isolation in these studies were euthanized by decapitation. OPCs from brains of P6-P7 Sprague–Dawley rat pups (Charles River, Wilmington, MA, USA) were enriched by immunopanning as previously described (Dugas et al. 2006). Briefly, single cell suspensions were obtained from papain-digested neonatal brains and depleted of mature glial cells by successive panning with RAN-2- and GalC-coated plates, followed by enrichment for OPCs using O4-coated plates. OPCs were plated in differentiation media (DMEM, 100 U/ml Penicillin/100 µg/ml streptomycin, 2 mM L-glutamine, 1 mM Na pyruvate, 5 µg/ml insulin, 5 µg/ml N-acetyl-L-cysteine, 1× trace elements B,10 ng/ml d-Biotin, 100 µg/ml BSA, 100 µg/ml apo-transferrin, 16 µg/ml putrescine, 60 ng/ml progesterone, 40 ng/ml sodium selenite 5 ng/ml forskolin, 10 ng/ml CNTF, 1 ng/ml NT-3).
# Acutely enriched OPCs were plated in differentiation media at 5000 cells/well into PDL/laminin coated 96-well view plates and centrifuged at 200×g to facilitate cell attachment, survival, and even distribution of OPCs. OPCs were pre-incubated for 1–2 h at 37 °C in 10 % CO2, followed by the addition of test compounds in quadruplicate. Controls were added in eight replicate wells, negative control = 0.1 % DMSO; positive control = 40 ng/ml T3. The day of OPC plating was considered DIV0. On DIV4, cells were fixed, immunostained for myelin basic protein (MBP) expression, imaged and quantified as described below.
# [2] = test system: expanded OPCs; test: cells; conditions: for viability at 0.1 µM / viability at 1 µM / viability at 10 µM: Rattus norvegicus, 72 h
# Procedure: Having established a consistent assay for measuring OL differentiation in vitro, the next step was to utilize this assay to assess the ability of a wide array of compounds to promote OL differentiation. Prior to library screening, we first established the maximum non-toxic dose of each compound in the library. […] Therefore, we added each compound in the NIH clinical collection (NCC) library to OPCs at 10, 1, and 0.1 µM concentrations. Three days later, we assessed viability of the treated cells by measuring AlamarBlue fluorescence, a measure of cell viability (see “Methods” section). […] Appropriately, we established three sets of screening concentrations for library compounds: non-toxic compounds were tested at 10 and 2 µM, slightly toxic compounds (only toxic at 10 µM) were tested at 2 and 0.4 µM, and very toxic compounds were tested at 0.4 and 0.08 µM.
# OPCs were expanded in vitro by seeding into PDL-coated tissue culture flasks at 1000–2000 cells/cm^2 in differentiation media supplemented with 10 ng/ml PDGF-AA. Proliferating OPCs were fed every 2–3 days and supplemented with 2–3× concentration of PDGF as needed to prevent OPC differentiation. After 6–7 days of proliferation, OPCs were harvested by trypsinization, plated into PDL-coated 96-well Falcon plates and centrifuged at 200×g to facilitate cell attachment, survival, and even distribution of cells. Expanded OPCs were seeded in differentiation media at 10,000 cells/well and incubated for 2 h at 37 °C, 10 % CO2 prior to addition of compounds. The NCC library was diluted and added to cells at 10, 1, and 0.1 µM; each concentration was tested in quadruplicate. As a positive control for the induction of toxicity, 5 ng/ml tunicamycin was added to 8 wells in each plate. Three days later, a 1:10 dilution of alamarBlue® (AB) was added to each well and cells were incubated 4 h at 37 °C, 10 % CO2. AB fluorescence was measured using a PerkinElmer Victor II fluorescence microplate reader (PerkinElmer, Waltham, MA) with 560 nm excitation/590 nm emission filters. For library screening, the highest concentration of each compound was adjusted to a minimally toxic concentration based on this toxicity data. Compounds were additionally tested at a second concentration that was 1/5th of the top concentration. The final concentration of DMSO in each well was 0.1 %.
# [3] = read-out: 0.1 µM (% DMSO), alamarBlue viability, NCC library compound at 0.1 µM, sheet "All Tox data"
# [4] = read-out: 1 µM (% DMSO), alamarBlue viability, NCC library compound at 1 µM, sheet "All Tox data"
# [5] = read-out: 10 µM (% DMSO), alamarBlue viability, NCC library compound at 10 µM, sheet "All Tox data"
# [6] = read-out: 0.1 µM (% DMSO), alamarBlue viability of expanded OPCs, compound at 0.1 µM, sheet All Tox data
# [7] = read-out: 1 µM (% DMSO), alamarBlue viability of expanded OPCs, compound at 1 µM, sheet All Tox data
# [8] = read-out: 10 µM (% DMSO), alamarBlue viability of expanded OPCs, compound at 10 µM, sheet All Tox data
compound,measurement,setting,value
Cc1c(C(=O)NN2CCCCC2)nn(-c2ccc(Cl)cc2Cl)c1-c1ccc(I)cc1 [AM 251],0.4 uM (% Quet),[1],-5.0 % Quet
same,2 uM (% Quet),[1],-199.0 % Quet
COc1ccc(CCN(C)CCCC(C#N)(c2ccc(OC)c(OC)c2)C(C)C)cc1OC (centres unmarked) [Verapamil],viability at 0.1 µM,[2]; read-out: 0.1 µM (% DMSO),84.5%
same,viability at 1 µM,[2]; read-out: 1 µM (% DMSO),92.8%
same,viability at 10 µM,[2]; read-out: 10 µM (% DMSO),43%
Cc1cc(NS(=O)(=O)c2ccc(N)cc2)no1 [Sulfamethoxazole],viability at 0.1 µM,[2]; [3],90.6%
same,viability at 1 µM,[2]; [4],96.3%
same,viability at 10 µM,[2]; [5],96.5%
C[C@]12CCC(=O)C=C1CC[C@@H]1[C@@H]2C(=O)C[C@@]2(C)[C@H]1CC[C@]2(O)C(=O)CO [Cortisone],0.1 µM (% DMSO),"[2]; alamarBlue viability, NCC library compound at 0.1 µM, sheet ""All Tox data""",99.5 % DMSO
same,1 µM (% DMSO),"[2]; alamarBlue viability, NCC library compound at 1 µM, sheet ""All Tox data""",105.4 % DMSO
same,10 µM (% DMSO),"[2]; alamarBlue viability, NCC library compound at 10 µM, sheet ""All Tox data""",105.4 % DMSO
CN(C)CCCN1c2ccccc2CCc2ccccc21 [Imipramine],viability at 0.1 µM,[2]; [3],79.4%
same,viability at 1 µM,[2]; [4],61.9%
same,viability at 10 µM,[2]; [5],30.6%
Cc1ccccc1C(OCCN(C)C)c1ccccc1 (centres unmarked) [Orphenadrine],0.1 µM (% DMSO),"[2]; alamarBlue viability of expanded OPCs, compound at 0.1 µM, relative to DMSO control",86.1 % DMSO and 95.1 % DMSO
same,1 µM (% DMSO),"[2]; alamarBlue viability of expanded OPCs, compound at 1 µM, relative to DMSO control",67.2 % DMSO and 74.3 % DMSO
same,10 µM (% DMSO),"[2]; alamarBlue viability of expanded OPCs, compound at 10 µM, relative to DMSO control",47.8 % DMSO and 50.8 % DMSO
Cc1ccc(NC(=O)c2ccc(CN3CCN(C)CC3)cc2)cc1Nc1nccc(-c2cccnc2)n1 [Imatinib mesylate],viability at 0.1 µM,[2]; [3],93.7%
same,viability at 1 µM,[2]; [4],70.5%
same,viability at 10 µM,[2]; [5],18%
Nc1ncnc2c1ncn2[C@@H]1O[C@H](CO)C[C@H]1O [Cordycepin],viability at 0.1 µM,[2]; [6],71.9%
same,viability at 1 µM,[2]; [7],38.3%
same,viability at 10 µM,[2]; [8],16%
Clc1ccccc1CN1CCc2sccc2C1 [Ticlopidine],viability at 0.1 µM,[2]; [6],107%
same,viability at 1 µM,[2]; [7],103%
same,viability at 10 µM,[2]; [8],90.3%
CC(=O)[C@]1(O)Cc2c(O)c3c(c(O)c2[C@@H](O[C@H]2C[C@H](N)[C@H](O)[C@H](C)O2)C1)C(=O)c1ccccc1C3=O [Idarubicin],viability at 0.1 µM,[2]; [6],13.9%
same,viability at 1 µM,[2]; [7],10.9%
same,viability at 10 µM,[2]; [8],11.4%
CC(C)CC(N(C)C)C1(c2ccc(Cl)cc2)CCC1 (centres unmarked) [Sibutramine],viability at 0.1 µM,[2]; [3],88.3%
same,viability at 1 µM,[2]; [4],84%
same,viability at 10 µM,[2]; [5],84.4%
